Consider 15 compounds from PMC11156954, “Inhibition and transport mechanisms of the ABC transporter hMRP5” (Nature Communications, 2024).

SMILES strings stand for the structures. Read-outs that look alike come from different tables or passages of the source.

Assay [1] relates to MRP5. As to conditions: reducing expression of endogenous MRP5; drug and, for 5-fluorouracil, its metabolites; ref [24],[25]; cited from earlier work. An excerpt: Patients with high hMRP5 levels tend to have a worse survival rate than those with low expression[20]–[22]. Further, overexpression of hMRP5 is a strong predictor of poor outcomes in cancer patient cohorts[19],[22],[23].

The test system of another assay is hMRP5. Set-up: method as in 2 sources, ref [15]–[18] = [15]; PMID 28277541; doi:10.1038/cddis.2017.53; 15. Hou Y The FOXM1-ABCC5 axis contributes to paclitaxel resistance in nasopharyngeal carcinoma cells Cell Death Dis. 2017 8 e2659 10.1038/cddis.2017.53 28277541 PMC5386553 || [16]; PMID 26975227; doi:10.1038/tpj.2016.17; 16. Lal S Pharmacogenetics of ABCB5, ABCC5 and RLIP76 and doxorubicin pharmacokinetics in Asian breast cancer patients Pharmacogenomics J. 2017 17 337 343 10.1038/tpj.2016.17 26975227 || [17]; PMID 15897250; doi:10.1158/1535-7163.MCT-04-0291; 17. Pratt S The multidrug resistance protein 5 (ABCC5) confers resistance to 5-fluorouracil and transports its monophosphorylated metabolites Mol. Cancer Ther. 2005 4 855 863 10.1158/1535-7163.MCT-04- || [18]; PMID 10840050; doi:10.1073/pnas.120159197; 18. Wijnholds J Multidrug-resistance protein 5 is a multispecific organic anion transporter able to transport nucleotide analogs Proc. Nat. Acad. Sci. USA 2000 97 7476 7481 10.1073/pnas.120159197 1084 ||| ref [18] = [18]; PMID 10840050; doi:10.1073/pnas.120159197; 18. Wijnholds J Multidrug-resistance protein 5 is a multispecific organic anion transporter able to transport nucleotide analogs Proc. Nat. Acad. Sci. USA 2000 97 7476 7481 10.1073/pnas.120159197 1084. As to conditions: cited from earlier work; for efflux by hMRP5 / contribution to drug resistance, in words: anticancer drugs, ref [15]–[18].

In another assay the target is T1, hMRP5-Δ1-94 (Homo sapiens, UniProt O15440).
T1 construct: The codon-optimized full-length human ABCC5 gene encoding the MRP5 protein (UniProt ID: O15440); 8xHis (C); 2xstrep (C); made in house; host or cells: HEK293F
Kind of assay: MST binding assay, hMRP5-Δ1-94. The following applies: for binding affinity to hMRP5, in words: MST, digitonin-purified hMRP5-Δ1-94, 15 min at room temperature. As for the experimental part:
We monitored the binding of different peptides to digitonin-purified hMRP5-Δ1-94-8xHis by MST assay (Monolith NT). HEPES buffer was used to replace Tris buffer during protein purification in the MST assay. The purified protein was mixed with RED-tris-NTA 2nd Generation dye (NanoTemper, MO-L018). Next, serially diluted peptides were mixed with the labeled protein. The mixtures were incubated for 15 min at room temperature, then the capillaries were loaded and the samples were assessed at 3% LED/excitation power and medium MST power. All peptides used in this study were synthesized in GL Biochem (Shanghai). The peptide sequence is provided as Source Data 5. The MST data were analyzed with MO.Affinity Analysis software.

Another assay deals with GFP-hMRP5. Kind of assay: Doxorubicin transport assay in Xenopus laevis oocytes. It is filed as cell-based, human. As to conditions: no peptide, 200 μM doxorubicin, 180 min, Kulori buffer pH 7.4, final 50 μl extract, LC-MS, *P = 0.0190 blank vs GFP-hMRP5. Here is the method: The transport assay was essentially done and modified as described. In brief, the cRNAs of C-terminal GFP-tagged hMRP5 and C-terminal mcherry-tagged M5PI were prepared from the linearized pcs2CAG vector DNA templates using the mMESSAGE mMACHINE T7 transcription system (Thermo Scientific, AM1344). Xenopus oocytes were injected with approximately 30 nl of cRNA (GFP-tagged hMRP5 and mcherry-tagged M5PI have the equal quantity 30 ng) or water after maintained in ND96 solution (96 mM NaCl, 2 mM KCl, 1 mM MgCl2, 1.8 mM CaCl2, 5 mM HEPES, pH 7.4) overnight. After 3 days of culture, the GFP and mcherry fluorescence of oocytes was detected using Nikon Confocal A1R, and oocytes showing similar fluorescence intensity were selected for assay. Then, oocytes were pre-incubated in Kulori buffer (90 mM NaCl, 1 mM KCl, 1 mM MgCl2, 5 mM HEPES, pH 7.4) for 5 min before being transferred to 1 ml Kulori buffer containing 200 μM doxorubicin for 180 min. The assay was stopped by removing the buffer and then washed with Kulori buffer at least 3 times and transferred into 1.5 ml tubes (3 oocytes per tube). Excess washing buffer was removed from the tube, and then 50 μl 50% methanol was added to the tube for oocyte homogenization by pipetting. The homogenized samples were centrifuged at 10,000 × g for 10 min at 4 °C, and the supernatants were transferred into new tubes and incubated at −20 °C until further analysis. The samples were acquired with a Q Exactive mass spectrometer coupled with UltiMate 3000 liquid chromatography system (Thermo scientific, CA, USA) after centrifugation at 20,000 × g for 15 min at 4 °C. A Hypersil GOLDTM C18 column (2.1 ×100 mm, 1.9 μm, Thermo Scientific) was used at a flow rate of 0.3 ml min^−1 for separation. Mobile phase A was 0.1% formic acid, while mobile phase B was acetonitrile modified with 0.1% formic acid. The mass spectrometer was operated in positive mode with a spray voltage of 3.5 kV. Full scan mass spectrometry data were recorded from the m/z range of 80–800. A standard dilution curve for quantification of doxorubicin was done. Statistical analysis of the transport assay results was performed using GraphPad Prism. Source data is provided as Source Data 6. The mass spectrometry data is provided as Supplementary Data 3.

The test system of assay [2] is MRP5. Set-up: method as in PMID 16337112, PMID 15006554, PMID 10893247. The following applies: ref [25],[29],[30]; cited from earlier work.
The next assay has as its target T2, hMRP4 (Homo sapiens, UniProt O15439).
T2 sequence (O15439 1-1325): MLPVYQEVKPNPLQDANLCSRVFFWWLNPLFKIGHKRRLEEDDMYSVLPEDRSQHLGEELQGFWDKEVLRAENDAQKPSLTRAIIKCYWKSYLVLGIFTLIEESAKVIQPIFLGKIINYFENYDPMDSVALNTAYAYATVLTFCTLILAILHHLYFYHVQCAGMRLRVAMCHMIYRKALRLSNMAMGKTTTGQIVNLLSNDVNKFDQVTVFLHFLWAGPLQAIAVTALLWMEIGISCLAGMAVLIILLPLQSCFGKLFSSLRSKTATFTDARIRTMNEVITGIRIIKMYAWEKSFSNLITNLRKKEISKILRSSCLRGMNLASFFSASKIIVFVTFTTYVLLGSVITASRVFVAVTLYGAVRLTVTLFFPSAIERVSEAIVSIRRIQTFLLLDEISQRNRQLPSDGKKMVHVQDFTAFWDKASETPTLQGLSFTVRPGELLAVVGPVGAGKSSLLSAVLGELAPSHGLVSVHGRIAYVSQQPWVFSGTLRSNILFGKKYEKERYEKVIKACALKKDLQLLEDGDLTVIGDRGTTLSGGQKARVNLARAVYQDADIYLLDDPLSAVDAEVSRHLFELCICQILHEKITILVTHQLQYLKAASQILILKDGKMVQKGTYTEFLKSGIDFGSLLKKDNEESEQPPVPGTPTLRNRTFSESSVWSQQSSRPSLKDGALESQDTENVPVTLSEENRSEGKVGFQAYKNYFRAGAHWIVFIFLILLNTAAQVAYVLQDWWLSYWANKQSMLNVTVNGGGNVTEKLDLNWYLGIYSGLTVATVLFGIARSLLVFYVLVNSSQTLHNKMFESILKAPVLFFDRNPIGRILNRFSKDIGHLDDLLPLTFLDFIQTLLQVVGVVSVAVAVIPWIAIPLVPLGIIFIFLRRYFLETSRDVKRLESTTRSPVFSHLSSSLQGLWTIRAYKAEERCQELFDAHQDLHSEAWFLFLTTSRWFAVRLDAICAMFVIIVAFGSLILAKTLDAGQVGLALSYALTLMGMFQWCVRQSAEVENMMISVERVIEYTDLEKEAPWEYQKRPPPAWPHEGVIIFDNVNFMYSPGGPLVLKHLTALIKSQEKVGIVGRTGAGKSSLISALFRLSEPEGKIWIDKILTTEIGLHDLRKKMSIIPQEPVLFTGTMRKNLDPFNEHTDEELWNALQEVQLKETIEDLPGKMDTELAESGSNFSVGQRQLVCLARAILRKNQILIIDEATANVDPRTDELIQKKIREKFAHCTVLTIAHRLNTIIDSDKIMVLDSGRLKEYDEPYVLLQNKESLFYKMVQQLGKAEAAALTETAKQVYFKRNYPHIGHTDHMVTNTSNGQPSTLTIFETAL
Kind of assay: MST binding assay, hMRP4.

T1 sequence (O15440 95-1437 limits assumed, stated change not applied): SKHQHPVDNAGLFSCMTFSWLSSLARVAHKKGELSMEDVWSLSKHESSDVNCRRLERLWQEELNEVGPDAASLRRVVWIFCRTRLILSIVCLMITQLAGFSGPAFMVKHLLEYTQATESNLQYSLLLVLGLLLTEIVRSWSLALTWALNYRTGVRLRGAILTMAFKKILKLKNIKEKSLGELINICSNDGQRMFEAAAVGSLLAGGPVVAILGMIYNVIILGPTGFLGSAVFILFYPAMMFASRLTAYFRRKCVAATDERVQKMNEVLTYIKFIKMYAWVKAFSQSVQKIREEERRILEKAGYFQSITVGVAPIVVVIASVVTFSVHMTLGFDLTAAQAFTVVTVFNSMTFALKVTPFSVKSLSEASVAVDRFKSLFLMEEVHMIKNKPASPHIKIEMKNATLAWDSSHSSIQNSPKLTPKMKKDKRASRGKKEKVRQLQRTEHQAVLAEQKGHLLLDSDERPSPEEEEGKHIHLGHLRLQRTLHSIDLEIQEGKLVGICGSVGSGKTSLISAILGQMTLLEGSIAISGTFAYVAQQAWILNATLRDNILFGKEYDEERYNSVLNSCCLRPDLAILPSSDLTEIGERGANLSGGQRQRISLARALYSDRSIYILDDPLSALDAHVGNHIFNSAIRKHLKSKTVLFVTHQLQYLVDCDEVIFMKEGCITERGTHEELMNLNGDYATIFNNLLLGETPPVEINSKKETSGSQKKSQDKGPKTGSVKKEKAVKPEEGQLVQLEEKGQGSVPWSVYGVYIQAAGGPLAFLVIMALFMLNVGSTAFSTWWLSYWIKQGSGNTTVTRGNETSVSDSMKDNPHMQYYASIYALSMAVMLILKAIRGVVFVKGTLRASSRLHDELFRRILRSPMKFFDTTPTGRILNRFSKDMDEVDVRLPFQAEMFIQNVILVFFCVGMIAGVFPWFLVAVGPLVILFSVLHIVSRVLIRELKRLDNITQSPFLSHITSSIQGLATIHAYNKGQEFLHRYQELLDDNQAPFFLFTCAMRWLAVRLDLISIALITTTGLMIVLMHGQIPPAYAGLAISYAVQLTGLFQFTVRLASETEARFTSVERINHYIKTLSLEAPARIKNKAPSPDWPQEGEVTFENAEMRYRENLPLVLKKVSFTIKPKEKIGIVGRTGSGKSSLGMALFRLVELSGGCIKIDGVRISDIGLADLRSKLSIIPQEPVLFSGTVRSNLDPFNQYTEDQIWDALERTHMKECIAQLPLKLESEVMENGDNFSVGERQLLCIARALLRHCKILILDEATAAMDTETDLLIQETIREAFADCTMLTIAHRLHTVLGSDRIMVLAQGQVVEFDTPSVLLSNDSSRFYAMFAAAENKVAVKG

With `O=c1[nH]cc(F)c(=O)[nH]1` [5-fluorouracil], the “intracellular drug concentration on reducing endogenous MRP5, in words” value with MRP5 [1] is on record as “notably increase the intracellular concentrations”.

Take `Nc1ncnc2c1ncn2CCOCP(=O)(O)O` [9-(2-phosphonomethoxyethyl) adenine]: the “transport by hMRP5, in words” value in the assay on hMRP5 (antiviral monophosphate nucleotide analog, ref [18]) is “leading to antiviral multidrug resistance”.

With `COc1cccc2c1C(=O)c1c(O)c3c(c(O)c1C2=O)C[C@@](O)(C(=O)CO)C[C@@H]3O[C@H]1C[C@H](N)[C@H](O)[C@H](C)O1` [Doxorubicin, doxorubicin], at hMRP5-Δ1-94, the Kd was determined as 53.5 ± 22.9 µM. Also, the “efflux by hMRP5 / contribution to drug resistance, in words” value (shortened to “efflux by hMRP5 / contribution”) with hMRP5 is reported as “directly contribute to cancer drug resistance through the efflux”. For the same compound, the “Doxorubicin concentration in oocyte extract, GFP-hMRP5” value in the assay on GFP-hMRP5 (replicate 1) is given as 323.646 nM; in the assay on GFP-hMRP5 (replicate 2), 292.08 nM; in the assay on GFP-hMRP5 (replicate 3), 493.92 nM; in the assay with GFP-hMRP5 (replicate 4), 266.323 nM.

Turning to `CN(C)C(=O)CCSC(SCCC(=O)O)c1cccc(/C=C/c2ccc3ccc(Cl)cc3n2)c1` (stereo not shown) [MK-571], the “inhibition of MRP5 transport activity, in words” value (from here on “inhibition”) in the assay with MRP5 [2] is recorded as “reported to inhibit the transport activity of MRP5”.

In the case of `CCCCC[C@H](O)/C=C/[C@H]1[C@H](O)CC(=O)[C@@H]1CCCCCCC(=O)O` [PGE1, prostaglandin E1], at hMRP4, the Kd was found to be 3.73 ± 0.66 µM. Moreover, the “binding affinity to hMRP4, in words” value on hMRP4 (MST, three independent measurements) is on record as “hMRP4 could capture prostaglandin E1 (PGE1)”.

`COc1cc2c(cc1OC)-c1c/c(=N\c3c(C)cc(C)cc3C)n(C)c(=O)n1CC2` [Trequinsin, trequinsin]: the Kd at hMRP5-Δ1-94 (digitonin-purified hMRP5-Δ1-94-8xHis, HEPES buffer, RED-tris-NTA 2nd Generation dye, 15 min at room temperature, 3% LED/excitation power, medium MST power, mean ± SEM of three independent measurements, read-out: binding affinity (MST), KD value) was determined as 42.4 ± 17.5 µM. Moreover, the “inhibition” value in the assay with MRP5 [2] was “reported to inhibit the transport activity of MRP5”.

Take `Nc1nc2c(ncn2[C@@H]2O[C@@H]3COP(=O)(O)O[C@H]3[C@H]2O)c(=O)[nH]1` [cGMP, cyclic GMP]: the “binding affinity to hMRP5, in words” value at hMRP5-Δ1-94 is “relatively low binding affinity”.

As to `N.N.[Cl][Pt][Cl]` [cisplatin], the “efflux by hMRP5 / contribution” value in the assay with hMRP5 is “directly contribute to cancer drug resistance through the efflux”.

As to `CN(Cc1cnc2nc(N)nc(N)c2n1)c1ccc(C(=O)N[C@@H](CCC(=O)O)C(=O)O)cc1` [methotrexate], in the assay with hMRP5, the “efflux by hMRP5 / contribution” value is “directly contribute to cancer drug resistance through the efflux”.

For the compound `Nc1nc2[nH]cc(CCc3ccc(C(=O)N[C@@H](CCC(=O)O)C(=O)O)cc3)c2c(=O)[nH]1` [pemetrexed], the “intracellular drug concentration on reducing endogenous MRP5, in words” value in the assay with MRP5 [1] was “notably increase the intracellular concentrations”.

Turning to `CCCN(CCC)S(=O)(=O)c1ccc(C(=O)O)cc1` [probenecid], the “inhibition” value in the assay on MRP5 [2] is listed as “reported to inhibit the transport activity of MRP5”.

For `CC(=O)[C@H]1CC[C@H]2[C@@H]3CCC4=CC(=O)CC[C@]4(C)[C@H]3CC[C@]12C` [progesterone], the “binding affinity to hMRP5, in words” value at hMRP5-Δ1-94 is listed as “relatively low binding affinity”.

For `CCCc1nn(C)c2c(=O)[nH]c(-c3cc(S(=O)(=O)N4CCN(C)CC4)ccc3OCC)nc12` [sildenafil], the “inhibition” value in the assay on MRP5 [2] was “reported to inhibit the transport activity of MRP5”.

With `C[C@]12CC[C@H]3[C@@H](CCC4=CC(=O)CC[C@@]43C)[C@@H]1CC[C@@H]2O` [testosterone], the “binding affinity to hMRP5, in words” value at hMRP5-Δ1-94 is listed as “relatively low binding affinity”.

`CCCOc1ccccc1-c1nc2nn[nH]c2c(=O)[nH]1` [zaprinast]: in the assay on MRP5 [2], the “inhibition” value is “reported to inhibit the transport activity of MRP5”.
